This note sets out measurements from paper PMC11653257, “Organometallic Half-Sandwich Complexes of 8-Hydroxyquinoline-Derived Mannich Bases with Enhanced Solubility: Targeting Multidrug Resistant Cancer” (Inorganic Chemistry, 2024).

Data set [1] in a line: n-octanol/water distribution coefficient (shake-flask). The data set is classed as physicochemical. The note with it: pH 7.4. Here is the method: The exchange of the coligand (H2O/Cl^–) changes the overall charge of the complex, thus affecting lipophilicity. […] The traditional shake-flask method was used to obtain distribution coefficients of the ligands as well as of the complexes in n-octanol/buffered aqueous solution (20 mM phosphate, pH = 7.4) at different chloride ion concentrations (4, 24, and 100 mM) using UV–vis spectrophotometry (Agilent Cary 8454 diode array spectrophotometer, Santa Clara, CA, USA) for the analysis. The compounds were dissolved in buffered aqueous solutions previously saturated with n-octanol. Then the aqueous and n-octanol phases were gently mixed in different volume ratios (using 1:60 for the ligands, 1:1 for the RhCp* and 1:2 for the RuCym complexes ratios of n-octanol to buffered aqueous solution volume) for 4 h, followed by phase separation. Then the UV–vis spectrum of the aqueous or n-octanol phase was recorded and compared to the reference spectrum. Stock solutions were made in the aqueous phase, and distribution coefficients (DpH) were calculated by the following equation: [drawing 3]

Data set [2] concerns MES-SA/B1. Description: Cytotoxicity in triple coculture, MES-SA/B1 mOrange. The format is cell-based, human. The procedure:
Cell lines were purchased from the American Type Culture Collection (ATCC). MES-SA/B1 is a human MDR1-transfected derivative of MES-SA, and MES-SA mCherry, MES-SA/B1 mOrange, and MES-SA/Dx5 eGFP were engineered to stably express the respective fluorescent proteins previously.[62] Cells were kept in culture medium (DMEM) supplemented with 10% fetal bovine serum, 2 mM L-glutamine, 100 units/mL penicillin, and 100 μg/mL streptomycin (Thermo Fisher). One week before use, MES-SA/Dx5 eGFP cells were treated with 0.5 μM doxorubicin to ensure ABCB1/P-gp expression.
The tested compounds were dissolved in 50% (v/v) DMSO/PBS’ buffer to prepare 5–10 mM stock solutions, which were diluted in complete culture medium. Constitutive expression of the fluorescent proteins allowed multiplexing in cytotoxicity experiments.[62] Cells were mixed before seeding in 384-well plates: in double cocultures, MES-SA mCherry and MES-SA/Dx5 eGFP cells were seeded at 1250–1250 cells/well (in total 2500 cells/well); while in triple cocultures, MES-SA mCherry, MES-SA/Dx5 eGFP and MES-SA/B1 mOrange cells were seeded at 800–800–800 cells/well (in total 2400 cells/well). Serial dilutions of the compounds were added 24 h after seeding. To address the effect of P-gp function, TQ was added at a nontoxic concentration (0.4 μM) 15 min before the test compounds. The intensity of the fluorescent proteins, which is proportional to cell mass, was measured after 144 h of incubation at the respective fluorescent channels (excitation/emission: eGFP: 485 nm/510 nm; mOrange: 545 nm/567 nm; mCherry: 585 nm/610 nm). pIC50 values were calculated by a custom program written by Judit Sessler in C#.[62] IC50 values and standard deviation were calculated from average pIC50 values from at least 3 independent measurements.

Data set [3] relates to Escherichia coli (ATCC 25922). Description: Antibacterial MIC, E. coli. The format is cell-based. The settings on record: Mueller Hinton Broth, 37 °C, 18 h. Here is the method: (§1) Escherichia coli (ATCC 25922) was used as Gram-negative strain and Staphylococcus aureus (ATCC 25923, methicillin-resistant (MRSA) ATCC 43300) strains were applied as Gram-positive bacterial cultures in the experiments. MIC values of the compounds were determined in 96-well plates based on the Clinical and Laboratory Standard Institute guidelines (CLSI guidelines).[76] The stock solutions of the compounds (same as those used for cytotoxicity experiments) were diluted in 100 μL of Mueller Hinton Broth. Then, 10^–4 dilution of an overnight bacterial culture in 100 μL of medium was added to each well, with the exception of the medium control wells.

The test system of data set [4] is Staphylococcus aureus (ATCC 25923). Description: Antibacterial MIC, S. aureus. The data set is classed as cell-based. The note with it: Mueller Hinton Broth, 37 °C, 18 h. Here is the method:
as §1

Data set [5] has as its system methicillin-resistant S. aureus (MRSA) ATCC 43300. Description: Antibacterial MIC, MRSA. The settings on record: Mueller Hinton Broth, 37 °C, 18 h. The format is cell-based, Staphylococcus aureus. The procedure:
as §1

The target of data set [6] is human serum albumin (HSA), Trp214 / site I (Homo sapiens, UniProt P02768). The data set is described as follows: HSA Trp214 fluorescence quenching.
human serum albumin (HSA), Trp214 / site I, sequence (P02768 25-609): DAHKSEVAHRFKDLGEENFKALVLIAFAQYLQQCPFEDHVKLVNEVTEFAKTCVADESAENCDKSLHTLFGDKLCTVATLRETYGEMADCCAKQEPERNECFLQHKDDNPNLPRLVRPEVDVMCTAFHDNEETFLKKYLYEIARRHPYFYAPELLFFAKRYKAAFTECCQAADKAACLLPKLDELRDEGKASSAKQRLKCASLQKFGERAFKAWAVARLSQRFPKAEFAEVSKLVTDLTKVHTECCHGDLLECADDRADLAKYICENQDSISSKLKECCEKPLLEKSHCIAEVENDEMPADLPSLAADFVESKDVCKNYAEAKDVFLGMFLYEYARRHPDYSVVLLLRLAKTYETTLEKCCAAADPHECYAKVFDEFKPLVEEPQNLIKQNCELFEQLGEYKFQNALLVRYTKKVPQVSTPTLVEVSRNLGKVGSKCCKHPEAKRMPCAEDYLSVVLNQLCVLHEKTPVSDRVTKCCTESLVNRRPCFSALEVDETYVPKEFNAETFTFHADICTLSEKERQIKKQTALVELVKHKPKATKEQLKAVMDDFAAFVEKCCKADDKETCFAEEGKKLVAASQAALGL
Method: (§2) Next, spectrofluorometric measurements were also performed to gain insight into the binding interactions that may occur in the hydrophobic binding sites of HSA. Tryptophan (Trp214) quenching experiments were conducted for the complexes (1–4) (for complex (3) see Figure S31) and their ligands). […] To monitor the binding at site II, site marker displacement experiments were performed using dansylglycine (DG).
(§3) Fluorescence measurements were carried out on a Fluoromax (Horiba Jobin Yvon, Longjumeau, France) spectrofluorometer using a 1 cm × 1 cm quartz cuvette. […] Excitation wavelengths were 295 nm for Trp-214 quenching and 340 nm for the DG displacement studies. The calculated conditional stability constants for HSA–complex species were obtained using the computer program HypSpec.[64] Calculations always were based on data obtained from at least two independent measurements.
Data set [7] concerns the target human serum albumin (HSA), site II (Homo sapiens, UniProt P02768). Description: HSA dansylglycine (DG) site marker displacement.
Method: as §2, §3
Data set [8] deals with MES-SA. Description: Cytotoxicity in double coculture, MES-SA mCherry. The settings on record: read-out: IC50 MES-SA, 144 h.
Method: (§4) Therefore, the novel half-sandwich complexes (1–4) and their corresponding ligands were tested against a coculture of MES-SA and MES-SA/Dx5 cells expressing the fluorescent proteins mCherry or eGFP, respectively.[62]
(§5) The tested compounds were dissolved in 50% (v/v) DMSO/PBS’ buffer to prepare 5–10 mM stock solutions, which were diluted in complete culture medium. Constitutive expression of the fluorescent proteins allowed multiplexing in cytotoxicity experiments.[62] […] Serial dilutions of the compounds were added 24 h after seeding. To address the effect of P-gp function, TQ was added at a nontoxic concentration (0.4 μM) 15 min before the test compounds. […] IC50 values and standard deviation were calculated from average pIC50 values from at least 3 independent measurements.
Data set [9] concerns MES-SA/Dx5. Description: Cytotoxicity in double coculture, MES-SA/Dx5 eGFP. The settings on record: for SR = IC50 (MES-SA)/IC50 (MES-SA/Dx5): double coculture; for IC50: read-out: IC50 MES-SA/Dx5.
Method: as §4, §5
Data set [10] in a line: pKa of the ligands by 1H NMR titration. The format is physicochemical. The settings on record: 0.20 M KNO3 with 10% (v/v) D2O, I = 0.20 M KNO3, 25.0 °C, read-out: pKa (OH). The procedure:
Physico-chemical properties such as aqueous solubility, lipophilicity, and the actual protonation state at a given pH are known to influence the pharmacokinetic behavior of a drug.
Bruker Avance III HD Ascend 500 Plus instrument (Billerica, MA, USA) was used for NMR studies. ^1H NMR spectroscopic measurements were carried out with a WATERGATE water suppression pulse scheme in the presence of 10% (v/v) D2O in most cases. DSS internal standard was added to samples to obtain reference peaks. ^1H NMR titrations were carried out in the presence of 0.20 M KNO3. The computer program HypSpec[64] was used to obtain equilibrium constants.

Converted amounts (≈) assume the structure as drawn. Like-named read-outs stand apart in the source and are kept apart here.

human serum albumin (HSA), site II, sequence (P02768 25-609): as above

For [RhCp*(HQCl-Pip)Cl]Cl [(3)], the figures for the logD7.4 entry in data set [1] (c(Cl–) = 4 mM), in data set [1] (c(Cl–) = 24 mM) and in data set [1] (c(Cl–) = 100 mM) were “+0.34 ± 0.01”, “+0.58 ± 0.01” and “+0.60 ± 0.01”, respectively. The “SR B1 = IC50 (MES-SA)/IC50 (MES-SA/B1)” value in data set [2] is 2.9. Further, the IC50 was determined as 740 nM in [2] (144 h); 2040 nM in [8] (double coculture with MES-SA/Dx5, without TQ); 220 nM in data set [9] (double coculture with MES-SA, 144 h, without TQ). In addition, the MIC – broadly, the lowest concentration found to suppress growth – amounted to 50 µM in data set [3], 50 µM in data set [4] and 25 µM in data set [5]. For the same compound, in [6] (1 μM HSA, λEX = 295 nm (Trp-214), pH 7.4 (PBS’), […], 24 h), the “logK’(quenching)” value was found to be 5.1 ± 0.1. In addition, in data set [7] (cHSA = cDG = 1 μM, λEX = 335 nm (DG), pH 7.4 (PBS’), […], 24 h), the “logK’(DG)” value is 5.0 ± 0.1. The “SR = IC50 (MES-SA)/IC50 (MES-SA/Dx5)” value in [9] (+ 0.4 μM tariquidar (TQ)) is listed as 1.3; in data set [9] (without TQ), 9.1.

`Oc1c(CN2CCCCC2)cc(Cl)c2cccnc12` [HQCl-pip, 5-chloro-7-(piperidin-1-ylmethyl)quinolin-8-ol]: the pKa (usually the pH at which an ionisable group is half protonated) in [10] came out at 7.43 ± 0.02. In addition, the logD at 4 h in data set [1] (n-octanol/buffered aqueous solution, n-octanol/H2O, read-out: log D7.4) stood at 2.54. For the same compound, the IC50 was determined as 380 nM in data set [2] (Homo sapiens, MES-SA/B1, 144 h); 1090 nM in data set [8] (Homo sapiens, MES-SA); 90 nM in data set [9] (Homo sapiens, MES-SA/Dx5, 144 h). The MIC came to 50 µM (≈ 13.8 µg/mL) in [3] (Escherichia coli, ATCC25922); 50 µM (≈ 13.8 µg/mL) in data set [4] (Staphylococcus aureus, ATCC25923); 25 µM (≈ 6.92 µg/mL) in [5] (Staphylococcus aureus). Moreover, the dissociation constant (Kd) – broadly, a measure of binding affinity in units of concentration – came out at 7940 nM in data set [6] and 3980 nM in data set [7].
